Results taken from patent publication US7256178B2, “Physiologically active substances” (priority 2002, dated 2007).

Columns and labels:
VEGF promoter = experiment: VEGF transcription inhibitory activity (VEGF-PLAP reporter, U251/1-8 cells under hypoxic conditions); assay type: cell-based; conditions: Homo sapiens, U-251, hypoxic (2% O2) incubator 18 hours, n=2 to 3
Text: In order to prepare a reporter system in which transcription from a VEGF promoter is reflected, a VEGF promoter sequence was cloned and inserted into a placental alkaline phosphatase (PLAP) vector to construct a reporter vector.
In order to obtain a promoter region of human VEGF, a VEGF genome was cloned from a phage library. Based on VEGF cDNA (GenBank accession number: X62568), a PCR primer in the sequence described as SEQ ID NO: 1 or SEQ ID NO: 2 was designed to conduct PCR, thereby obtaining about a fragment of 340 bp. A human genomic phage library (human genomic library, Clontech) was screened using this fragment as a probe to obtain pUC18-VEGFA containing a VEGF5′ franking region of about 5.4 kb. This pUC18-VEGFA was cut with Kpn I/Nhe I to obtain a VEGF promoter region of about 2.3 kb, and the region was inserted into the multicloning site Kpn I/Nhe I of the placental alkaline phosphatase (PLAP) reporter vector (Goto et al., Mol. Pharmacol., 49, 860-873, 1996) to construct a VEGF-PLAP vector.
The above-described VEGF-PLAP vector was introduced into U251 cells cultured in a Dulbecco's modified Eagle's medium containing 10% fetal bovine serum (DMEM, manufactured by Sigma Co.), and cultured in the presence of 1 mg/mL G418 (Merck & Co., Inc.) to establish a G418-resistant stable clone (U251/1-8 cells).
As in a report by Minchenko et al. (Cell. Mol. Biol. Res., 40, 35-39, 1994), U251/1-8 cells were confirmed to be a reporter system which secretes PLAP into a culture medium under hypoxic conditions (2% O2 incubator), and in which transcription from a VEGF promoter is reflected. A compound inhibiting VEGF production induced by hypoxic stimulation was screened using this clone.
In order to eliminate influence of the alkali phosphatase in the serum, the U251/1-8 cells were washed with a sufficient amount of PBS (Phosphate buffered saline) twice, and treated at 65° C. for 20 minutes to inactivate the alkaline phosphatase in the serum. 4×10^4 cells/180 μL per well of the cells diluted in the DMEM culture medium containing 10% of this serum were plated in a 96-well plate.
The cells were cultured in a CO2 incubator (5% CO2) at 37° C. overnight, and 20 μL of the above-described culture solution containing the test compound at threefold serial dilutions was added. Subsequently, the cells were cultured in hypoxic (2% O2) incubator for 18 hours. To measure the PLAP activity in the culture supernatant liquid, 10 μL of the culture supernatant liquid was added to 50 μL of a 0.28 M Na2CO3—NaHCO3 buffer solution (pH 10.0, 8.0 mM MgSO4), and finally 50 μL of an alkaline phosphatase substrate (Lumistain, Genome Science Laboratories Co., Ltd.) was added thereto. After the reaction for one hour, chemiluminescence was detected using a microplate reader (PerkinElmer) to measure the PLAP activity as the alkaline phosphatase activity. The PLAP activity under normoxic conditions was defined as 0%, the PLAP activity of the cells when treated under hypoxic conditions was defined as 100%, and the concentration for inhibiting 50% of the PLAP activity was defined as the IC50 value of PLAP. The IC50 values of the 6-deoxy 11107D derivatives shown in examples were determined (n=2 to 3).

[1] = tested on: WiDr human colon cancer cells; experiment: Action of inhibiting proliferation of WiDr human colon cancer cells (MTT); assay type: cell-based; conditions: 72 h, three days, n=2 to 3, read-out: WiDr human colon cancer cell proliferation inhibitory activity (IC50: nM)
Method: 2×10^3 cells/well of WiDr human colon cancer cells cultured in a Dulbecco's modified Eagle's medium containing 10% fetal bovine serum, penicillin (100 units/mL) and streptomycin (100 μg/mL) (DMEM, manufactured by Sigma Co.) were plated in a 96-well plate. The cells were cultured in a CO2 incubator overnight, and 20 μL of the above-described culture solution containing the test compound at threefold serial dilutions was added for culturing the cells. After three days, 50 μL of a 3.3 mg/mL MTT solution was added, and the cells were further cultured for one hour. Then, formazan generated by reduction using living cells was extracted with 100 μL of DMSO to measure the absorbance (A540/A660), which was used as an index of the number of living cells.
The concentration for inhibiting 50% of proliferation of WiDr human colon cancer cells (IC50 value) of the compound of the formula (I) was determined (n=2 to 3).

[2] = Stability in an aqueous solution (HPLC); assay type: physicochemical; conditions: pH 7 Britton-Robinson buffer solution, 25° C., 24 hours
Method: The compound of the formula (I) was dissolved in DMSO at a concentration of 10 to 20 mM, and the solution was diluted with a pH 7 Britton-Robinson buffer solution to about 500-fold. This solution was used as a sample solution, and was incubated at 25° C. for 24 hours.
The sample solution before and after the incubation was analyzed using high-performance liquid chromatography to obtain a chromatogram. The percentage of the compound remaining in the sample solution after the incubation was determined from the peak area of the chromatogram.

CCC(O)C(C)C1OC1CC(C)(O)/C=C/C=C(\C)C1OC(=O)CC(O)CCC(C)C(OC(=O)N2CCN(C)CC2)/C=C/C1C (stereo not shown) [Compound 18, (8E,12E,14E)-3,16,21-trihydroxy-6,10,12,16,20-pentamethyl-7-((4-methylpiperazin-1-yl)carbonyl)oxy-18,19-epoxytricosa-8,12,14-trien-11-olide]
IC50 (VEGF promoter): 1 nM | IC50 [1]: 0.5 nM | Remaining percentage (%) [2]: 95.0%

CCC(O)C(C)C1OC1CC(C)(O)/C=C/C=C(\C)C1OC(=O)CC(O)CCC(C)C(OC(=O)N2CCCN(C)CC2)/C=C/C1C (stereo not shown) [Compound 19, (8E,12E,14E)-3,16,21-trihydroxy-6,10,12,16,20-pentamethyl-7-((4-methylhomopiperazin-1-yl)carbonyl)oxy-18,19-epoxytricosa-8,12,14-trien-11-olide]
IC50 (VEGF promoter): 1.1 nM | IC50 [1]: 0.3 nM | Remaining percentage (%) [2]: 95.5%

CCC(O)C(C)C1OC1CC(C)(O)/C=C/C=C(\C)C1OC(=O)CC(O)CCC(C)C(OC(=O)N(C)CCN(CC)CC)/C=C/C1C (stereo not shown) [Compound 20, (8E,12E,14E)-7-(N-(2-(N′,N′-diethylamino)ethyl-N-methyl)carbamoyloxy)-3,16,21-trihydroxy-6,10,12,16,20-pentamethyl-18,19-epoxytricosa-8,12,14-trien-11-olide]
IC50 (VEGF promoter): 1.1 nM | IC50 [1]: 0.2 nM | Remaining percentage (%) [2]: 95.6%

CCC(O)C(C)C1OC1CC(C)(O)/C=C/C=C(\C)C1OC(=O)CC(O)CCC(C)C(OC(=O)N2CCC(N3CCCCC3)CC2)/C=C/C1C (stereo not shown) [Compound 21, (8E,12E,14E)-3,16,21-trihydroxy-6,10,12,16,20-pentamethyl-7-((4-(piperidin-1-yl)piperidin-1-yl)carbonyl)oxy-18,19-epoxytricosa-8,12,14-trien-11-olide]
IC50 (VEGF promoter): 2 nM | IC50 [1]: 0.6 nM | Remaining percentage (%) [2]: 94.8%

CCC(O)C(C)C1OC1CC(C)(O)/C=C/C=C(\C)C1OC(=O)CC(O)CCC(C)C(OC(=O)NCCN(CC)CC)/C=C/C1C (stereo not shown) [Compound 22, (8E,12E,14E)-7-(N-(2-(N′,N′-diethylamino)ethyl)carbamoyloxy)-3,16,21-trihydroxy-6,10,12,16,20-pentamethyl-18,19-epoxytricosa-8,12,14-trien-11-olide]
IC50 (VEGF promoter): 2.5 nM | IC50 [1]: 1.1 nM | Remaining percentage (%) [2]: 95.4%

CCC(O)C(C)C1OC1CC(C)(O)/C=C/C=C(\C)C1OC(=O)CC(O)CCC(C)C(OC(=O)N2CCN(CC(C)(C)C)CC2)/C=C/C1C (stereo not shown) [Compound 23, (8E,12E,14E)-7-((4-(2,2-dimethylpropyl)piperazin-1-yl)carbonyl)oxy-3,16,21-trihydroxy-6,10,12,16,20-pentamethyl-18,19-epoxytricosa-8,12,14-trien-11-olide]
IC50 (VEGF promoter): 14.7 nM | IC50 [1]: 3.8 nM

CCC(O)C(C)C1OC1CC(C)(O)/C=C/C=C(\C)C1OC(=O)CC(O)CCC(C)C(OC(=O)N(C)C2CCN(C)CC2)/C=C/C1C (stereo not shown) [Compound 29, (8E,12E,14E)-3,16,21-trihydroxy-6,10,12,16,20-pentamethyl-7-(N-methyl-N-(1-methylpiperidin-4-yl)carbamoyloxy)-18,19-epoxytricosa-8,12,14-trien-11-olide]
IC50 (VEGF promoter): 1.3 nM | IC50 [1]: 0.3 nM

CCC(O)C(C)C1OC1CC(C)(O)/C=C/C=C(\C)C1OC(=O)CC(O)CCC(C)C(OC(=O)N2CCCN(C(C)C)CC2)/C=C/C1C (stereo not shown) [Compound 39, (8E,12E,14E)-3,16,21-trihydroxy-7-((4-isopropylhomopiperazin-1-yl)carbonyl)oxy-6,10,12,16,20-pentamethyl-18,19-epoxytricosa-8,12,14-trien-11-olide]
IC50 (VEGF promoter): 1.3 nM | IC50 [1]: 0.5 nM | Remaining percentage (%) [2]: 95.9%

CCC(O)C(C)C1OC1CC(C)(O)/C=C/C=C(\C)C1OC(=O)CC(O)CCC(C)C(OC(=O)N2CCN(C(C)C)CC2)/C=C/C1C (stereo not shown) [Compound 44, (8E,12E,14E)-3,16,21-trihydroxy-7-((4-isopropylpiperazin-1-yl)carbonyl)oxy-6,10,12,16,20-pentamethyl-18,19-epoxytricosa-8,12,14.-trien-11-olide]
IC50 (VEGF promoter): 2.4 nM | IC50 [1]: 0.6 nM | Remaining percentage (%) [2]: 95.4%
